pEC50: −log10 of the molar value. Where a name gives a salt, the structure may show the parent alone.
Target: T1, human M1 receptor (hCHRM1) (Homo sapiens, UniProt P11229)
T1 construct: expressed in transfected cells; host or cells: CHO-K1
T1 sequence (P11229 1-460): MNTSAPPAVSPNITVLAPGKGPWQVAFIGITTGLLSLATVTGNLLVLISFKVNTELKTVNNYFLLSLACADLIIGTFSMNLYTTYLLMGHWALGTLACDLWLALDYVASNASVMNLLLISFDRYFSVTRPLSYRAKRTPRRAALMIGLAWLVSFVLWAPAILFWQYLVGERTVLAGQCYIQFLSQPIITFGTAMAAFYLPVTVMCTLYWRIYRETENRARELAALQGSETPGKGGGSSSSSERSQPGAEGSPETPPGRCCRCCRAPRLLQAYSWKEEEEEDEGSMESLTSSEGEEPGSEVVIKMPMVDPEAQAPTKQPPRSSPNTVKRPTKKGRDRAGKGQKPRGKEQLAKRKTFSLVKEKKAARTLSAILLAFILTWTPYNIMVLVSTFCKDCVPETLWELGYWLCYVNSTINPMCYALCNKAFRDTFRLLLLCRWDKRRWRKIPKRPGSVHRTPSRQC
Experiment: Measurement of M1 receptor positive allosteric modulator (M1PAM) activity (calcium fluorescence, Fluo-4, FDSS)
Format: cell-based
Conditions: for activity (%) at 10 μM: 10 μM test compound, acetylcholine EC20 (final 0.8 nM) present, 100% = acetylcholine 1 μM, 0% = DMSO, CHO-K1 hCHRM1 cells; for pEC50: inflection point of concentration-dependent curve, CHO-K1 cells stably expressing hCHRM1, in presence of acetylcholine at EC20 concentration (final 0.8 nM), read-out: IP value
Description: Measurement of M1 receptor positive allosteric modulator (M1PAM) activity
The activity of a test compound in the presence of acetylcholine at EC20 concentration (final concentration 0.8 nM), which affords an action corresponding to about 20% of the maximum activity, was measured as PAM activity. The method is as follows. CHO-K1 cells stably expressing a human M1 receptor (hCHRM1) were plated on a 384-well black clear bottom plate (BD Falcon) at 5,000 cells/well, and cultured in an incubator at 37° C., 5% CO2 for 1 day. The medium in the cell plate was removed, and assay buffer A containing a calcium indicator (Recording medium (DOJINDO LABORATORIES), 0.1% BSA (Wako Pure Chemical Industries, Ltd.), 2.5 μg/mL Fluo-4 AM (DOJINDO LABORATORIES), 0.08% Pluronic F127 (DOJINDO LABORATORIES) and 1.25 mM probenecid (DOJINDO LABORATORIES) were added at 30 μL/well. The cells were left standing in the incubator at 37° C., 5% CO2 for 30 min, and further left standing at room temperature for 30 min. A test compound prepared by diluting with assay buffer B (HESS (Invitrogen), 20 mM HEPES (Invitrogen), 0.1% BSA) containing 3.2 nM acetylcholine was added at 10 μL/well, and the fluorescence was measured by FDSS/μcell (Hamamatsu Photonics K.K.) for 1 min every for 1 second. With the definition that the amount of change in the fluorescence on addition of acetylcholine (final concentration 1 μM) is 100% and that on addition of DMSO instead of a test compound is 0%, the activity (%) of the test compound was calculated, and the inflection point in the concentration-dependent curve of the test compound was calculated as IP values.

Row | Compound | activity (%) at 10 μM | pEC50
1 | Cc1c(Cc2ccc(Cl)nc2)cc2c(=O)n([C@H]3CCCC[C@@H]3O)cnc2c1C [Example 54, 6-((6-chloropyridin-3-yl)methyl)-3-((1S,2S)-2-hydroxycyclohexyl)-7,8-dimethylquinazolin-4(3H)-one] | 96% | 7.64
2 | Cc1c(Cc2ccc(-c3cn(C)nn3)cc2)cc2c(=O)n([C@H]3CCC[C@@H]3O)cnc2c1C (single isomer, unassigned) [Example 22, 3-(trans-2-hydroxycyclopentyl)-7,8-dimethyl-6-(4-(1-methyl-1H-1,2,3-triazol-4-yl)benzyl)quinazolin-4(3H)-one] | 95% | 7.10
3 | Cc1c(Cc2ccc(-c3ccn(C)n3)nc2)cc2c(=O)n([C@H]3COCC[C@@H]3O)nnc2c1C [Example 58, 3-((3S,4S)-4-hydroxytetrahydro-2H-pyran-3-yl)-7,8-dimethyl-6-((6-(1-methyl-1H-pyrazol-3-yl)pyridin-3-yl)methyl)-1,2,3-benzotriazin-4(3H)-one] | 95% | 7.85
4 | Cc1ccc(Cc2cc3c(=O)n([C@H]4CCCC[C@@H]4O)cnc3c(C)c2C)cn1 (relative stereo) [Example 35, 3-(trans-2-hydroxycyclohexyl)-7,8-dimethyl-6-((6-methylpyridin-3-yl)methyl)quinazolin-4(3H)-one] | 96% | 7.39
5 | Cc1c(Cc2ccc(-c3cnn(C)c3)nc2)cc2c(=O)n(CC3CCCO3)cnc2c1Cl (centres unmarked) [Example 25, 8-chloro-7-methyl-6-((6-(1-methyl-1H-pyrazo-4-yl)pyridin-3-yl)methyl)-3-(tetrahydrofuran-2-ylmethyl)quinazolin-4(3H)-one hydrochloride] | 95% | 7.21
6 | Cc1c(Cc2ccc(Cl)nc2)cc2c(=O)n([C@H]3CCCC[C@@H]3O)cnc2c1C (relative stereo) [Example 19, 6-((6-chloropyridin-3-yl)methyl)-3-(trans-2-hydroxycyclohexyl)-7,8-dimethylquinazolin-4(3H)-one] | 97% | 7.18
7 | Cc1cc(-c2ccc(Cc3cc4c(=O)n([C@H]5CCC[C@@H]5O)cnc4c(C)c3C)cn2)ccn1 (relative stereo) [Example 12, 3-(trans-2-hydroxycyclopentyl)-7,8-dimethyl-6-((2′-methyl-2,4′-bipyridin-5-yl)methyl)quinazolin-4(3H)-one] | 99% | 7.41
8 | Cc1c(Cc2ccc(-n3cccn3)nc2)cc2c(=O)n([C@H]3COCC[C@@H]3O)nnc2c1C [Example 44, 3-[(3S,4S)-4-hydroxytetrahydro-2H-pyran-3-yl]-7,8-dimethyl-6-{[6-(1H-pyrazol-1-yl)pyridin-3-yl]methyl}-1,2,3-benzotriazin-4(3H)-one] | 100% | 7.49
9 | Cc1c(Cc2ccc(-c3cnn(C)c3)nc2)cc2c(=O)n(CC3CCCO3)nnc2c1C (centres unmarked) [Example 39, 7,8-dimethyl-6-((6-(1-methyl-1H-pyrazol-4-yl)pyridin-3-yl)methyl)-3-(tetrahydrofuran-2-ylmethyl)-1,2,3-benzotriazin-4(3H)-one] | 97% | 7.07
10 | Cc1c(Cc2ccc(-c3cnn(C)c3)nc2)cc2c(=O)n([C@H]3CCCC[C@@H]3O)cnc2c1C [Example 59, 3-((1S,2S)-2-hydroxycyclohexyl)-7,8-dimethyl-6-((6-(1-methyl-1H-pyrazol-4-yl)pyridin-3-yl)methyl)quinazolin-4(3H)-one] | 94% | 8.32
11 | Cc1c(Cc2ccc(-n3cccn3)cc2)cc2c(=O)n([C@H]3COCC[C@@H]3O)cnc2c1C (relative stereo) [Example 3, 3-(trans-4-hydroxytetrahydro-2H-pyran-3-yl)-7,8-dimethyl-6-(4-(1H-pyrazol-1-yl)benzyl)quinazolin-4(3H)-one] | 98% | 7.82
12 | Cc1c(Cc2ccc(-n3cccn3)cc2)cc2c(=O)n([C@H]3CCOC[C@@H]3O)cnc2c1C [Example 55, 3-((3R,4S)-3-hydroxytetrahydro-2H-pyran-4-yl)-7,8-dimethyl-6-(4-(1H-pyrazol-1-yl)benzyl)quinazolin-4(3H)-one] | 99% | 8.13
13 | Cc1c(Cc2ccc(-c3cnn(C)c3)nc2)cc2c(=O)n([C@H]3CCC[C@@H]3O)cnc2c1C (relative stereo) [Example 15, 3-(trans-2-hydroxycyclopentyl)-7,8-dimethyl-6-((6-(1-methyl-1H-pyrazol-4-yl)pyridin-3-yl)methyl)quinazolin-4(3H)-one] | 100% | 7.96
14 | Cc1c(Cc2ccc(-c3cn(C)nn3)nc2)cc2c(=O)n([C@H]3CCC[C@@H]3O)cnc2c1C (relative stereo) [Example 14, 3-(trans-2-hydroxycyclopentyl)-7,8-dimethyl-6-((6-(1-methyl-1H-1,2,3-triazol-4-yl)pyridin-3-yl)methyl)quinazolin-4(3H)-one] | 100% | 7.96
15 | Cc1c(Cc2ccc(-c3cnn(C)c3)nc2)cc2c(=O)n([C@H]3CCC[C@@H]3O)cnc2c1C (single isomer, unassigned) [Example 50, 3-(trans-2-hydroxycyclopentyl)-7,8-dimethyl-6-((6-(1-methyl-1H-pyrazol-4-yl)pyridin-3-yl)methyl)quinazolin-4(3H)-one] | 102% | 8.19
16 | Cc1c(Cc2ccc(-c3cn(C)nn3)cc2)cc2c(=O)n([C@H]3CCC[C@@H]3O)nnc2c1C (relative stereo) [Example 40, 3-(trans-2-hydroxycyclopentyl)-7,8-dimethyl-6-(4-(1-methyl-1H-1,2,3-triazol-4-yl)benzyl)-1,2,3-benzotriazin-4(3H)-one] | 94% | 7.15
17 | Cc1c(Cc2ccc(-n3cccn3)cc2)cc2c(=O)n([C@H]3COCC[C@@H]3O)nnc2c1C [Example 41, 3-((3S,4S)-4-hydroxytetrahydro-2H-pyran-3-yl)-7,8-dimethyl-6-(4-(1H-pyrazol-1-yl)benzyl)-1,2,3-benzotriazin-4(3H)-one] | 101% | 7.54
18 | Cc1c(Cc2ccc(-n3cccn3)cc2)cc2c(=O)n([C@H]3COCC[C@@H]3O)cnc2c1F [Example 38, 8-fluoro-3-((3S,4S)-4-hydroxytetrahydro-2H-pyran-3-yl)-7-methyl-6-(4-(1H-pyrazol-1-yl)benzyl)quinazolin-4(3H)-one] | 100% | 7.77
19 | Cc1c(Cc2ccc(-n3cccn3)cc2)cc2c(=O)n([C@H]3COCC[C@@H]3O)nnc2c1C [Example 43, 3-((3S,4S)-4-hydroxytetrahydro-2H-pyran-3-yl)-7,8-dimethyl-6-(4-(1H-pyrazol-1-yl)benzyl)-1,2,3-benzotriazin-4(3H)-one] | 100% | 7.85
20 | Cc1c(Cc2ccc(-c3cnn(C)c3)nc2)cc2c(=O)n([C@H]3CCC[C@@H]3O)cnc2c1C (single isomer, unassigned) [Example 51, 3-(trans-2-hydroxycyclopentyl)-7,8-dimethyl-6-((6-(1-methyl-1H-pyrazol-4-yl)pyridin-3-yl)methyl)quinazolin-4(3H)-one] | 97% | 7.10
21 | COc1cc(Cc2ccc(-c3cnn(C)c3)cc2)cc2c(=O)n([C@H]3CCC[C@@H]3O)cnc12 (relative stereo) [Example 20, 3-(trans-2-hydroxycyclopentyl)-8-methoxy-6-(4-(1-methyl-1H-pyrazol-4-yl)benzyl)quinazolin-4(3H)-one] | 97% | 7.21
22 | Cc1c(Cc2ccc(-n3cccn3)cc2)cc2c(=O)n([C@H]3CCCC[C@@H]3O)cnc2c1C (relative stereo) [Example 1, 3-(trans-2-hydroxycyclohexyl)-7,8-dimethyl-6-(4-(1H-pyrazol-1-yl)benzyl)quinazolin-4(3H)-one] | 92% | 7.28
